Laboratory results published in PubChem BioAssay AID256 (DTP/NCI, 2004).
Toxic doses and inconclusive results are not listed. The calls were made as follows: active = survival T/C of 150% or more; inactive = T/C below 125% in these data.

Test system: CD2F1 mice, L1210 leukemia ip, survival T/C
Assay: NCI In Vivo Anticancer Drug Screen. Data for tumor model L1210 Leukemia (intraperitoneal) in CD2F1 (CDF1) mice
Details: endpoint: mean survival time, higher = longer survival
Summary of the method: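 Read-out first: treated-group measurement over vehicle-control measurement, expressed as a ratio. Animals bore a transplanted tumor line and were dosed with compound or vehicle.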

[1] = dose: 100.0 mg/kg/injection, schedule: Q04DX003 (ip), vehicle: saline
[2] = dose: 200.0 mg/kg/injection, schedule: Q04DX003 (ip), vehicle: saline
[3] = dose: 400.0 mg/kg/injection, schedule: Q04DX003 (ip), vehicle: saline
[4] = dose: 100.0 mg/kg/injection, schedule: Q01DX009 (ip), vehicle: saline with Tween-80

Measured: T/C

CN(C)CCP(=O)(O)O
inactive: [1] 101 % of control | [2] 98 % of control | [3] 98 % of control

CC1=NCCc2c1cc1c([nH]c3ccccc31)c2C
inactive: dose: 44.0 mg/kg/injection, schedule: Q01DX009 (ip), vehicle: saline with Tween-80 114 % of control | dose: 67.0 mg/kg/injection, schedule: Q01DX009 (ip), vehicle: saline with Tween-80 96 % of control

Nc1ncnc2c1ncn2C1OC(C(=O)OCCO)C(O)C1O (configuration not stated)
inactive: dose: 12.5 mg/kg/injection, schedule: Q01DX009 (ip), vehicle: saline 108 % of control | dose: 25.0 mg/kg/injection, schedule: Q01DX009 (ip), vehicle: saline 114 % of control | dose: 25.0 mg/kg/injection, schedule: Q01DX009 (ip), vehicle: suspension in saline 110 % of control | dose: 25.0 mg/kg/injection, schedule: Q04DX002 (ip), vehicle: saline 93 % of control | dose: 50.0 mg/kg/injection, schedule: Q01DX009 (ip), vehicle: suspension in saline 124 % of control | dose: 50.0 mg/kg/injection, schedule: Q04DX002 (ip), vehicle: saline 95 % of control | dose: 100.0 mg/kg/injection, schedule: Q04DX002 (ip), vehicle: saline 93 % of control | dose: 200.0 mg/kg/injection, schedule: Q04DX002 (ip), vehicle: saline 90 % of control

Cc1ccc(S(=O)(=O)N=N/C=C2/C=CC=CN2O)cc1
inactive: dose: 20.0 mg/kg/injection, schedule: Q01DX009 (ip), vehicle: Klucel (hydroxypropylcellulose) (HPC) 105 % of control | dose: 40.0 mg/kg/injection, schedule: Q01DX009 (ip), vehicle: Klucel (hydroxypropylcellulose) (HPC) 108 % of control | dose: 45.0 mg/kg/injection, schedule: Q01DX009 (ip), vehicle: Klucel (hydroxypropylcellulose) (HPC) 114 % of control | dose: 87.5 mg/kg/injection, schedule: Q01DX009 (ip), vehicle: Klucel (hydroxypropylcellulose) (HPC) 121 % of control

O=c1ccnc(SCc2ccccc2)[nH]1
inactive: dose: 100.0 mg/kg/injection, schedule: Q04DX002 (ip), vehicle: saline with Tween-80 105 % of control | dose: 200.0 mg/kg/injection, schedule: Q04DX002 (ip), vehicle: saline with Tween-80 101 % of control | dose: 400.0 mg/kg/injection, schedule: Q04DX002 (ip), vehicle: saline with Tween-80 94 % of control

COC(=O)C1=NNC(C(=O)OC)=C(c2ccccc2)C(c2ccccc2)=N1
inactive: dose: 12.5 mg/kg/injection, schedule: Q01DX009 (ip), vehicle: Klucel (hydroxypropylcellulose) (HPC) 95 % of control | dose: 25.0 mg/kg/injection, schedule: Q01DX009 (ip), vehicle: Klucel (hydroxypropylcellulose) (HPC) 91 % of control | dose: 50.0 mg/kg/injection, schedule: Q01DX009 (ip), vehicle: Klucel (hydroxypropylcellulose) (HPC) 98 % of control | dose: 100.0 mg/kg/injection, schedule: Q01DX009 (ip), vehicle: Klucel (hydroxypropylcellulose) (HPC) 101 % of control | dose: 200.0 mg/kg/injection, schedule: Q01DX009 (ip), vehicle: Klucel (hydroxypropylcellulose) (HPC) 109 % of control | dose: 400.0 mg/kg/injection, schedule: Q01DX009 (ip), vehicle: Klucel (hydroxypropylcellulose) (HPC) 114 % of control

NN(C(=O)c1ccccc1)C1CCCCC1
inactive: [4] 97 % of control

Nc1cccc(CCCCc2cccc(S(=O)(=O)F)c2)c1
inactive: dose: 50.0 mg/kg/injection, schedule: Q01DX009 (ip), vehicle: saline with Tween-80 97 % of control | [4] 95 % of control | dose: 100.0 mg/kg/injection, schedule: Q04DX003 (ip), vehicle: saline with Tween-80 100 % of control | dose: 200.0 mg/kg/injection, schedule: Q01DX009 (ip), vehicle: saline with Tween-80 97 % of control | dose: 200.0 mg/kg/injection, schedule: Q04DX003 (ip), vehicle: saline with Tween-80 95 % of control

CCCN(CCC)CCCOC(=O)c1ccc([N+](=O)[O-])cc1
inactive: [1] 97 % of control | [2] 92 % of control | [3] 94 % of control

O=NN(CCCl)C(=O)Nc1c[nH]c2ccccc12
inactive: dose: 177.0 mg/kg/injection, schedule: Q01DX001 (ip), vehicle: saline with Tween-80 96 % of control | dose: 177.0 mg/kg/injection, schedule: Q01DX009 (ip), vehicle: saline with Tween-80 98 % of control | dose: 265.0 mg/kg/injection, schedule: Q01DX001 (ip), vehicle: saline with Tween-80 97 % of control | dose: 265.0 mg/kg/injection, schedule: Q01DX009 (ip), vehicle: saline with Tween-80 101 % of control | dose: 400.0 mg/kg/injection, schedule: Q01DX001 (ip), vehicle: saline with Tween-80 92 % of control | dose: 400.0 mg/kg/injection, schedule: Q01DX009 (ip), vehicle: saline with Tween-80 97 % of control | dose: 600.0 mg/kg/injection, schedule: Q01DX001 (ip), vehicle: saline with Tween-80 91 % of control
